SMILES strings stand for the structures.

Here are results for 20 compounds from patent US9187472B2 (AbbVie Inc., priority 2012, dated 2015).

Assay [1] deals with PC3 cells. The assay can be described thus: NAMPT Cell Proliferation Assay. The class given is cell-based. As to conditions: Homo sapiens, PC-3, 120 h, 5 days incubation, cell viability by Cell Titer Glo. The essentials: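 Cell Titer Glo viability after 5-day exposure (37° C, 5% CO2); PC3, 500 cells/well, RPMI + 10% heat-inactivated FBS, overnight attachment before dosing. Dose range 10 μM to 1×10^−5 μM, 10-fold steps. IC50 = sigmoidal fit of % inhibition.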

In assay [2] the target is NAMPT (human, recombinant, C-terminally His-tagged) (Homo sapiens, UniProt P43490). The assay can be described thus: Time-Resolved Fluorescence Resonance Energy Transfer (TR-FRET) Binding Assay of NAMPT. Particulars: without substrates; 6.8 nM NAMPT, 200 nM probe, 3 hours equilibration. Put shortly: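 Probe displacement by compound was measured with 6.8 nM NAMPT, 200 nM Oregon Green 488-conjugated nicotinamide-competitive inhibitor probe and 1 nM Tb-anti-His antibody in 50 mM HEPES pH 7.5, 100 mM NaCl, 10 mM MgCl2, 1 mM DTT, 1% glycerol, 2% DMSO (final). After 3 h at room temperature, TR-FRET was read; IC50 from four-parameter logistic fit.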
NAMPT (human, recombinant, C-terminally His-tagged), sequence (P43490 whole entry): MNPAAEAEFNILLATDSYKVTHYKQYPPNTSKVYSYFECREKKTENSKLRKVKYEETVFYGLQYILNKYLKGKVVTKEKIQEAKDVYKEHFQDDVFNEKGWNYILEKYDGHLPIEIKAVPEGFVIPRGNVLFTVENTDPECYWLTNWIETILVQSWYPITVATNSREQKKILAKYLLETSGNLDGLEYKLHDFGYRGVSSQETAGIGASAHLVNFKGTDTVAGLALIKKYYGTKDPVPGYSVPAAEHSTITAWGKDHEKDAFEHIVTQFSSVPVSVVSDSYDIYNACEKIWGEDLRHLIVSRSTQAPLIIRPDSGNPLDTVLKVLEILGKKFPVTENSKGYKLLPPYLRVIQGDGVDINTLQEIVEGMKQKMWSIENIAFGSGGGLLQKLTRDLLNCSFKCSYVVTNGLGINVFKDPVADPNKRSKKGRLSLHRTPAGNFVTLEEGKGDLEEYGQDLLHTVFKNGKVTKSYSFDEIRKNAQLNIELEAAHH
A general note: In TR-FRET formats the signal depends on donor and acceptor labels being close together.

In assay [3] the target is NAMPT (Homo sapiens, UniProt P43490). The assay can be described thus: TR-FRET Binding Assay of NAMPT with PRPP. As to conditions: with 200 μM PRPP and 2.5 mM ATP; 2 nM NAMPT, 2 nM probe, 16 hours equilibration. The essentials:
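Run in the presence of substrates (200 μM PRPP, 2.5 mM ATP) with final 2 nM NAMPT, 2 nM probe, 1 nM Tb-anti-His antibody and 2% DMSO. Mixtures equilibrated 16 h before TR-FRET measurement so test compounds could be enzymatically modified.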

The test system of assay [4] is activated T cells. Particulars: Busso et al. 2008; cited from earlier work.
Assay [5] has as its system collagen induced arthritis. Particulars: Busso et al. 2008; cited from earlier work.
The test system of assay [6] is experimental autoimmune encephalomyelitis (EAE). As to conditions: model of T-cell mediated autoimmune disorders, Bruzzone et al. 2009; cited from earlier work.

NAMPT, sequence (P43490 whole entry): as above

In the case of `CC(C)(C)OC(=O)N1CCN(CCn2cc(-c3ccc(C(=O)NCc4ccn5ccnc5c4)s3)cn2)CC1` [Example 808, tert-butyl 4-[2-(4-{5-[(imidazo[1,2-a]pyridin-7-ylmethyl)carbamoyl]thiophen-2-yl}-1H-pyrazol-1-yl)ethyl]piperazine-1-carboxylate], the 50% inhibitory concentration (IC50) was determined as 1.1 nM in assay [1], 94.4 nM in assay [2] and 0.568 nM in assay [3].

Turning to `O=C(NCc1ccn2ccnc2c1)c1ccc(-c2cnn(CCN3CCNCC3)c2)s1` [Example 809, N-(imidazo[1,2-a]pyridin-7-ylmethyl)-5-{1-[2-(piperazin-1-yl)ethyl]-1H-pyrazol-4-yl}thiophene-2-carboxamide], the IC50 in assay [1] came out at 33.2 nM; in assay [2], 95.3 nM; in assay [3], 0.63 nM.

For the compound `O=C(NCc1ccc2ncnn2c1)c1ccc(-c2cnn(CC3(F)CCOCC3)c2)o1` [Example 810, 5-{1-[(4-fluorotetrahydro-2H-pyran-4-yl)methyl]-1H-pyrazol-4-yl}-N-([1,2,4]triazolo[1,5-a]pyridin-6-ylmethyl)furan-2-carboxamide], the IC50 in assay [1] was 327 nM; in assay [2], 481 nM; in assay [3], 12.6 nM.

Take `CC(C)C(=O)N1CCC(c2ccc(C(=O)NCc3cn4ccnc4cn3)cc2)CC1` [Example 811, N-(imidazo[1,2-a]pyrazin-6-ylmethyl)-4-[1-(2-methylpropanoyl)piperidin-4-yl]benzamide]: the IC50 in assay [1] turned out to be 11.4 nM; in assay [2], 99.8 nM; in assay [3] it was 2.86 nM.

On to `O=C(NCc1cn2ccnc2cn1)c1ccc(C2CCN(C(=O)c3ccc(F)cc3)CC2)cc1` [Example 812, 4-[1-(4-fluorobenzoyl)piperidin-4-yl]-N-(imidazo[1,2-a]pyrazin-6-ylmethyl)benzamide], for which the concentration for half-maximal inhibition (IC50) is 38.8 nM in assay [1], 80 nM in assay [2] and 2.57 nM in assay [3].

Consider `O=C(NCc1cn2ccnc2cn1)c1ccc(C2CCN(C(=O)c3cc(F)ccc3F)CC2)cc1` [Example 813, 4-[1-(2,5-difluorobenzoyl)piperidin-4-yl]-N-(imidazo[1,2-a]pyrazin-6-ylmethyl)benzamide], for which the figures for the IC50 in assay [1], in assay [2] and in assay [3] were 2.21 nM, 11.2 nM and 1.53 nM, respectively.

In the case of `CC1(C(=O)N2CCC(c3ccc(C(=O)NCc4cn5ccnc5cn4)cc3)CC2)CC1` [Example 814, N-(imidazo[1,2-a]pyrazin-6-ylmethyl)-4-{1-[(1-methylcyclopropyl)carbonyl]piperidin-4-yl}benzamide], the IC50 in assay [1] stood at 4.5 nM; in assay [2] it was 68.7 nM; in assay [3], 1.63 nM.

With `O=C(NCc1cn2ccnc2cn1)c1ccc(C2CCN(C(=O)CC(F)(F)F)CC2)cc1` [Example 815, N-(imidazo[1,2-a]pyrazin-6-ylmethyl)-4-[1-(3,3,3-trifluoropropanoyl)piperidin-4-yl]benzamide], the figures for the IC50 in assay [1], in assay [2] and in assay [3] were 5.89 nM, 53 nM and 1.93 nM, respectively.

Regarding `CC(C)CC(=O)N1CCC(c2ccc(C(=O)NCc3cn4ccnc4cn3)cc2)CC1` [Example 816, N-(imidazo[1,2-a]pyrazin-6-ylmethyl)-4-[1-(3-methylbutanoyl)piperidin-4-yl]benzamide], the IC50 was 4.82 nM in assay [1], 46.1 nM in assay [2] and 1.58 nM in assay [3].

Regarding `CC(C)S(=O)(=O)N1CCC(c2ccc(C(=O)NCc3cn4ccnc4cn3)cc2)CC1` [Example 817, N-(imidazo[1,2-a]pyrazin-6-ylmethyl)-4-[1-(propan-2-ylsulfonyl)piperidin-4-yl]benzamide], the IC50 in assay [1] is 9.27 nM; in assay [2], 65.8 nM; in assay [3], 1.6 nM.

Turning to `CC(C)Cn1nccc1-c1ccc(C(=O)NCc2ccn3ccnc3c2)o1` [Example 818, N-(imidazo[1,2-a]pyridin-7-ylmethyl)-5-[1-(2-methylpropyl)-1H-pyrazol-5-yl]furan-2-carboxamide], the IC50 in assay [1] turned out to be 716 nM; in assay [2], 1520 nM; in assay [3], 0.644 nM.

Turning to `CC(C)Cn1cc(-c2ccc(C(=O)NCc3cn4ccnc4cn3)o2)cn1` [Example 819, N-(imidazo[1,2-a]pyrazin-6-ylmethyl)-5-[1-(2-methylpropyl)-1H-pyrazol-4-yl]furan-2-carboxamide], the concentration for half-maximal inhibition (IC50) stood at 13 nM in assay [1], 19.9 nM in assay [2] and 0.624 nM in assay [3].

Take `CC(C)Cn1cc(-c2ccc(C(=O)NCc3ccc4ncnn4c3)o2)cn1` [Example 820, 5-[1-(2-methylpropyl)-1H-pyrazol-4-yl]-N-([1,2,4]triazolo[1,5-a]pyridin-6-ylmethyl)furan-2-carboxamide]: the concentration for half-maximal inhibition (IC50) in assay [1] came out at 802 nM; in assay [2] it was 499 nM; in assay [3], 9.28 nM.

For the compound `CC(C)CCn1nccc1-c1ccc(C(=O)NCc2ccn3ccnc3c2)o1` [Example 821, N-(imidazo[1,2-a]pyridin-7-ylmethyl)-5-[1-(3-methylbutyl)-1H-pyrazol-5-yl]furan-2-carboxamide], the concentration for half-maximal inhibition (IC50) in assay [1] is 192 nM; in assay [2], 663 nM; in assay [3], 0.284 nM.

In the case of `CC1(Cn2cc(-c3ccc(C(=O)NCc4ccc5ncnn5c4)o3)cn2)CCOCC1` [Example 822, 5-{1-[(4-methyltetrahydro-2H-pyran-4-yl)methyl]-1H-pyrazol-4-yl}-N-([1,2,4]triazolo[1,5-a]pyridin-6-ylmethyl)furan-2-carboxamide], the IC50 amounted to 71.1 nM in assay [1], 104 nM in assay [2] and 3.46 nM in assay [3].

Take `COC[C@H]1CCCN1C(=O)c1ccc(C(=O)NCc2ccn3ccnc3c2)s1` [Example 823, N-(imidazo[1,2-a]pyridin-7-ylmethyl)-5-{[(2R)-2-(methoxymethyl)pyrrolidin-1-yl]carbonyl}thiophene-2-carboxamide]: the IC50 in assay [1] amounted to 4.62 nM; in assay [2], 189 nM; in assay [3], 0.356 nM.

`CC(C)CC1CCCN1C(=O)c1ccc(C(=O)NCc2ccn3ccnc3c2)s1` (stereo not shown) [Example 824, N-(imidazo[1,2-a]pyridin-7-ylmethyl)-5-{[2-(2-methylpropyl)pyrrolidin-1-yl]carbonyl}thiophene-2-carboxamide]: the IC50 is 12.4 nM in assay [1], 118 nM in assay [2] and 0.566 nM in assay [3].

Regarding `CC(C)(C)Cn1cc(-c2ccc(C(=O)NCc3ccn4ccnc4c3)o2)cn1` [Example 825, 5-[1-(2,2-dimethylpropyl)-1H-pyrazol-4-yl]-N-(imidazo[1,2-a]pyridin-7-ylmethyl)furan-2-carboxamide], the 50% inhibitory concentration (IC50) came to 1.06 nM in assay [1], 26.1 nM in assay [2] and 0.538 nM in assay [3].

For `O=C(NCc1cn2ccnc2cn1)c1ccc(C2CCN(C(=O)c3ccccc3F)CC2)cc1` [Example 826, 4-[1-(2-fluorobenzoyl)piperidin-4-yl]-N-(imidazo[1,2-a]pyrazin-6-ylmethyl)benzamide], the results for the concentration for half-maximal inhibition (IC50) in assay [1], in assay [2] and in assay [3] were 6.79 nM, 7.79 nM and 0.897 nM, respectively.

In the case of `O=C(/C=C/c1cccnc1)NCCCCC1CCN(C(=O)c2ccccc2)CC1` [FK866], in assay [4], the “apoptosis of activated T cells” value was “induce apoptosis” and the “proliferation of activated T cells” value is “selectively block proliferation”. Also, in assay [5], the “efficacy in animal models of arthritis” value is given as “efficacious”. In addition, the “manifestations of experimental autoimmune encephalomyelitis” value in assay [6] is reported as “ameliorated the manifestations”.

Broadly, the IC50 is the midpoint of a concentration-inhibition curve.
